Laboratory results reported in patent publication US5503988A, “Process for producing a cholesterol-reduced substance” (priority 1992, dated 1996).
Where two headings read alike, the source gives them in different places.

Assays:
[1] = test system: epicholesterol dehydrogenase from Mycobacterium sp. EPI-40; type: biochemical
Method: With 0.1 ml of a 1 mM epicholesterol micelle solution containing 0.33% Triton X-100 are mixed 0.3 ml of 20 mM Tris-HCl buffer (pH 8.0) containing 1 mM dithiothreitol, 0.1 ml of a 10 mM NAD solution, and 0.01 ml of 50 mM magnesium chloride. 0.05 ml of the enzyme solution is added to the mixture, and the mixture is allowed to stand at 37° C. for 2 hours. 0.05 ml of chloroform is added and sterol is extracted to stop the reaction.
Cholestenone produced in the reaction mixture is determined with high performance liquid chromatography. A quantitative determination is made using an ODS column (Inertsil ODS-2 column, 4.6×250 mm, product of GL Science Co.), using methanol as the mobile phase. […] The enzyme activity which produces 1 μmol of cholestenone per minute is defined as 1 unit.

[2] = test system: cholesterol oxidase from Botrytis cinerea CO-33; type: biochemical
Method: To 0.1 ml of 1 mM cholesterol micelle solution containing 0,33% Triton X-100 is added 0.3 ml of 20 mM phosphate/citrate buffer (pH 6.0), 0.05 ml of the enzyme solution is added to the mixture, and the reaction is carried out at 37° C. for 10 minutes. 0.05 ml of chloroform is added thereto to extract sterol, stopping the reaction.
Cholestenone in the reaction mixture is determined with a TLC/FID IATROSCAN (product to Diayatron Co.). […] The enzyme activity which produces 1 μmol of cholestenone per minute is defined as 1 unit.

O=C(O)CN(CCN(CC(=O)O)CC(=O)O)CC(=O)O [ethylenediamine tetraacetate]
residual activity (activity without inhibitor defined as 100%) ([1]; pH 8): 71%
residual activity (activity without inhibitor defined as 100%) ([2]; pH 6): 93%

O=C(O)CI [iodoacetic acid]
residual activity (activity without inhibitor defined as 100%) ([1]; pH 8): 67%
residual activity (activity without inhibitor defined as 100%) ([2]; pH 6): 89%

O=S(=O)(O)c1cc[c]([Hg][Cl])cc1 [p-chloromercury phenylsulfonate]
residual activity (activity without inhibitor defined as 100%) ([1]; 1 mM inhibitor added, allowed to stand 2 hours at pH 8.0, 37° C.): 7%
residual activity (activity without inhibitor defined as 100%) ([2]; 1 mM inhibitor added, reaction for 10 minutes at pH 6.0, 37° C.): 100%
